Test results as given in the NIST ThermoML archive (doi:10.1021/je200853g).
± gives the expanded uncertainty stated by the source.

Tests used:
[1] = Crystal; DTA
[2] = Molar enthalpy of transition or fusion; details: Crystal; DSC

Cc1ncc(CO)c(CO)c1O [5-hydroxy-6-methyl-3,4-pyridinedimethanol]
Triple point temperature [1]: 433.18 ± 0.5 K
Molar enthalpy of transition or fusion [2]: 7.45 ± 0.217 kcal/mol
